Laboratory results: patent US20240381872A1, “SUBSTITUTED 2,3-DIHYDRO[1,3]THIAZOLO[4,5-B]PYRIDINES, SALTS THEREOF AND THEIR USE AS HERBICIDALLY ACTIVE SUBSTANCES” (BAYER AKTIENGESELLSCHAFT, priority 2021, published 2024)

What was measured:
Type in all cases: in vivo
Setaria viridis (SETVI) = experiment: Herbicidal pre-emergence action, section C (Table C8); settings: visual grading after ca. 3 weeks; for pest or weed control at 80 g/ha: application rate 80 g/ha
Method in brief: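 Seeds sown in sandy loam and covered with soil; compounds formulated as WP or EC were sprayed onto the covering soil as aqueous suspension/emulsion with 0.5% additive at 600 l water/ha. Pots kept in greenhouse under optimum conditions; damage graded visually after ca. 3 weeks versus untreated controls (0–100%).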

[1] = tested on: Abutilon theophrasti (ABUTH); experiment: Herbicidal post-emergence action, section E (Table E1); settings: application rate 320 g/ha, assessed visually after ca. 3 weeks; for pest or weed control at 320 g/ha: Abutilon theophrasti, post-emergence, 504 h, read-out: post-emergence activity against ABUTH in %
From the text: (§1) Seeds of mono- and dicotyledonous weed plants and crop plants were sown, in plastic or organic planting pots, in sandy loam, covered with soil and grown in a greenhouse under controlled growth conditions. 2 to 3 weeks after sowing, the test plants were sprayed in the single-leaf stage. The compounds according to the invention, formulated in form of wettable powders (WP) or as emulsifiable concentrates (EC), were sprayed onto the green plant parts as aqueous suspension or emulsion, with the addition of 0.5% of an additive, at an application rate of 600 l of water/ha (converted). The test plants were placed in the greenhouse for ca. 3 weeks under optimum growth conditions, and then the effect of the preparations was assessed visually in comparison with untreated controls (herbicidal effect in percent (%): 100% effect=plants have died off, 0% effect=as control plants).

[2] = tested on: Amaranthus retroflexus (AMARE); experiment: Herbicidal post-emergence action, section E (Table E3); settings: assessed visually after ca. 3 weeks
From the text: as §1

[3] = tested on: Amaranthus retroflexus (AMARE); experiment: Herbicidal pre-emergence action, section A (Table A11)
Method in brief: (§2)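 In this greenhouse test, sown seeds under soil cover received the compounds as suspensions or emulsions, with 0.5% additive, at 600 l water/ha before emergence. Damage was assessed by eye after about 3 weeks, compared with untreated controls.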

[4] = tested on: Echinochloa crus-galli (ECHCG); experiment: Herbicidal pre-emergence action, section A (Table A3); settings: visual grading after ca. 3 weeks vs untreated controls
Method in brief: as §2

[5] = tested on: Amaranthus retroflexus (AMARE); experiment: Herbicidal post-emergence action, section B (Table B11); settings: visual rating about 3 weeks after treatment vs untreated controls; for pest or weed control at 1280 g/ha: application rate 1280 g/ha
Method in brief: (§3)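 Potted weeds in sandy loam are treated post-emergence at the one-leaf stage, 2 to 3 weeks after sowing. The spray is an aqueous WP or EC preparation with 0.5% additive at 600 liters per hectare. Percent activity is assessed by eye after about 3 weeks versus untreated controls.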

[6] = tested on: Alopecurus myosuroides (ALOMY); experiment: Herbicidal pre-emergence action, section A (Table A2); settings: application rate 1280 g/ha, visual grading after ca. 3 weeks vs untreated controls; for pest or weed control at 1280 g/ha: Alopecurus myosuroides, pre-emergence, 504 h, read-out: pre-emergence activity against ALOMY in %
Method in brief: as §2

[7] = tested on: Abutilon theophrasti (ABUTH); experiment: Herbicidal pre-emergence action, section A (Table A1); settings: visual grading after ca. 3 weeks vs untreated controls
Method in brief: as §2

[8] = tested on: Abutilon theophrasti (ABUTH); experiment: Herbicidal pre-emergence action, section C (Table C1); settings: visual grading after ca. 3 weeks vs untreated controls
From the text: (§4) Seeds of mono- and dicotyledonous weed plants and crop plants were sown, in plastic or organic planting pots, in sandy loam and covered with soil. The compounds according to the invention, formulated in the form of wettable powders (WP) or as emulsifiable concentrates (EC), were applied to the surface of the covering soil as aqueous suspension or emulsion, with the addition of 0.5% of an additive, at an application rate of 600 l of water/ha (converted). Following treatment, the pots were placed in a greenhouse and kept under optimum growth conditions for the test plants. The visual grading of the damage to the test plants was carried out after ca. 3 weeks in comparison to untreated controls (herbicidal effect in percent (%): 100% effect=plants have died off, 0% effect=as control plants).

Stellaria media (STEME) = experiment: Herbicidal post-emergence action, section B (Table B9); settings: visual rating about 3 weeks after treatment vs untreated controls
Method in brief: as §3

Kochia scoparia (KCHSC) = experiment: Herbicidal pre-emergence action, section A (Table A4); settings: application rate 1280 g/ha, visual grading after ca. 3 weeks vs untreated controls; for pest or weed control at 1280 g/ha: Bassia scoparia, pre-emergence, 504 h, read-out: pre-emergence activity against KCHSC in %
Method in brief: as §2

[9] = tested on: Echinochloa crus-galli (ECHCG); experiment: Herbicidal post-emergence action, section E (Table E5); settings: visual assessment ca. 3 weeks after spraying
From the text: as §1

Lolium rigidum (LOLRI) [10] = experiment: Herbicidal pre-emergence action, section C (Table C5); settings: visual grading after ca. 3 weeks; for pest or weed control at 80 g/ha: Lolium rigidum, pre-emergence, 504 h, application rate 80 g/ha, read-out: pre-emergence activity against LOLRI in %
From the text: as §4

Lolium rigidum (LOLRI) [11] = experiment: Herbicidal post-emergence action, section B (Table B5); settings: Lolium rigidum, post-emergence, 504 h; application rate 1280 g/ha; visual rating about 3 weeks after treatment vs untreated controls; read-out: post-emergence activity against LOLRI in %
Method in brief: as §3

[12] = Amaranthus retroflexus, post-emergence, 504 h, application rate 320 g/ha, read-out: post-emergence activity against AMARE in %
[13] = Amaranthus retroflexus, 504 h, application rate 320 g/ha, read-out: pre-emergence activity against AMARE in %
[14] = Echinochloa crus-galli, pre-emergence, 504 h, application rate 320 g/ha, read-out: pre-emergence activity against ECHCG in %
[15] = Amaranthus retroflexus, post-emergence, 504 h, read-out: post-emergence activity against AMARE in %
[16] = Abutilon theophrasti, pre-emergence, 504 h, application rate 320 g/ha, read-out: pre-emergence activity against ABUTH in %
[17] = Stellaria media, post-emergence, 504 h, application rate 1280 g/ha, read-out: post-emergence activity against STEME in %
[18] = Setaria viridis, pre-emergence, 504 h, read-out: pre-emergence activity against SETVI in %

Compound	pest or weed control at 320 g/ha [1]	pest or weed control at 320 g/ha [2, 12]	pest or weed control at 320 g/ha [3, 13]	pest or weed control at 320 g/ha [4, 14]	pest or weed control at 1280 g/ha [5, 15]	pest or weed control at 1280 g/ha [6]	pest or weed control at 320 g/ha [7, 16]	pest or weed control at 320 g/ha [8, 16]	pest or weed control at 1280 g/ha (Stellaria media (STEME); [17])	pest or weed control at 1280 g/ha (Kochia scoparia (KCHSC))	pest or weed control at 80 g/ha (Setaria viridis (SETVI); [18])	pest or weed control at 80 g/ha (Lolium rigidum (LOLRI) [10])	other results
CC1(C(=O)N2CSc3cc(Br)c(-c4ccccc4Cl)nc32)CC(Cl)=NO1 (centres unmarked) [Example I-141, [6-bromo-5-(2-chlorophenyl)[1,3]thiazolo[4,5-b]pyridin-3(2H)-yl](3-chloro-5-methyl-4,5-dihydro-1,2-oxazol-5-yl)methanone]	80%	80%	100%	100%	90%	90%	100%	90%	90%	100%			pest or weed control at 320 g/ha (Setaria viridis (SETVI); Setaria viridis, pre-emergence, 504 h, application rate 320 g/ha, read-out: pre-emergence activity against SETVI in %): 100%
CC1(C(=O)N2CSc3cc(Br)c(-c4ccccc4)nc32)CC(Cl)=NO1 (centres unmarked) [Example I-139]													pre-emergence activity against SETVI in % (Setaria viridis (SETVI); application rate 320 g/ha): 100%; post-emergence activity against ECHCG in % ([9]; application rate 320 g/ha): 90%; post-emergence activity against ABUTH in % [1]: 90%; post-emergence activity against AMARE in % ([2]; application rate 320 g/ha): 90%; pre-emergence activity against AMARE in % ([3]; application rate 320 g/ha): 100%; pre-emergence activity against LOLRI in % (Lolium rigidum (LOLRI) [10]; application rate 320 g/ha): 80%; pre-emergence activity against ECHCG in % ([4]; application rate 320 g/ha): 100%; post-emergence activity against AMARE in % ([5]; application rate 320 g/ha): 90%; pre-emergence activity against ALOMY in % [6]: 90%; pre-emergence activity against ABUTH in % ([7]; application rate 320 g/ha): 90%; pre-emergence activity against ABUTH in % ([8]; application rate 320 g/ha): 90%; post-emergence activity against STEME in % (Stellaria media (STEME); application rate 1280 g/ha): 90%; pre-emergence activity against KCHSC in % (Kochia scoparia (KCHSC)): 90%
Cc1cc2c(nc1-c1ccccc1F)NCS2 [Example I-007, 5-(2-fluorophenyl)-6-methyl-2,3-dihydro[1,3]thiazolo[4,5-b]pyridine]	80%			100%	90%	100%		80%	90%	90%	100%	100%	pest or weed control at 80 g/ha ([9]; Echinochloa crus-galli, 504 h, application rate 80 g/ha, read-out: post-emergence activity against ECHCG in %): 90%; pest or weed control at 80 g/ha ([2]; Amaranthus retroflexus, post-emergence, 504 h, application rate 80 g/ha, read-out: post-emergence activity against AMARE in %): 80%; pest or weed control at 1280 g/ha ([3]; Amaranthus retroflexus, 504 h, application rate 1280 g/ha, read-out: pre-emergence activity against AMARE in %): 90%; pest or weed control at 1280 g/ha ([7]; Abutilon theophrasti, pre-emergence, 504 h, application rate 1280 g/ha, read-out: pre-emergence activity against ABUTH in %): 90%
CCS(=O)(=O)N1CSc2cc(C)c(-c3ccccc3F)nc21 [Example I-060, 3-(ethylsulfonyl)-5-(2-fluorophenyl)-6-methyl-2,3-dihydro[1,3]thiazolo[4,5-b]pyridine]	80%	90%	90%			90%	90%			100%	100%	100%	pest or weed control at 1280 g/ha ([4]; Echinochloa crus-galli, pre-emergence, 504 h, application rate 1280 g/ha, read-out: pre-emergence activity against ECHCG in %): 100%; pest or weed control at 320 g/ha [5, 12]: 90%; pest or weed control at 1280 g/ha (Lolium rigidum (LOLRI) [11]): 90%; pest or weed control at 80 g/ha ([8]; Abutilon theophrasti, pre-emergence, 504 h, application rate 80 g/ha, read-out: pre-emergence activity against ABUTH in %): 90%; pest or weed control at 320 g/ha (Stellaria media (STEME); Stellaria media, post-emergence, 504 h, application rate 320 g/ha, read-out: post-emergence activity against STEME in %): 90%
